Data set [1] in a line: Nanoparticle size by quasi-elastic light diffusion (Coulter N4MD nanosizer). The class given is physicochemical. Here is the method:
The size of the colloidal particles obtained in example 1 were monitored by quasi-elastic light diffusion using a nanosizer (Coulter® N4MD, Coulter Electronics, Hialeah, USA).
The colloidal suspensions were diluted in MilliQ® water so that the number of particles per ml was suitable for the measuring device.

The test system of data set [2] is MCF-7. Put plainly: Cytotoxic activity, MTT test, 72 hours exposure. The class given is cell-based, human. Particulars: concentration at which 50% of the cells are alive, read-out: CI50 (μM) after 72 hours MCF-7. Here is the method: (§1) The cytotoxic activity of SQgem was evaluated on two human tumoral cell lines (KB3-1, cancer of the naso-pharynx and MCF-7, breast cancer) by exposure to SQgem for 72 hours, and compared with the activity of gemcitabine.
(§2) The lines were maintained in DMEM medium with 10% foetal calf serum, 2 mM glutamine, 50 mg/l antibiotics, at 37° C., 5% CO2, 95% humidity. The cells were seeded onto a 96 well plate in an amount of 1×10^4/well; after 24 hours, different dilutions of gemcitabine and SQgem particle were added and incubated for 72 hours. Cellular viability was then determined by the MTT test. The results are expressed as CI50, which is the concentration of the molecule at which 50% of the cells are alive.

Data set [3] concerns KB3-1. Description: Cytotoxic activity, MTT test, 72 hours exposure. The class given is cell-based, human. Particulars: for IC50: KB3-1 cells, 72 hours, MTT test, concentration at which 50% of the cells are alive, read-out: CI50 (μM) after 72 hours KB3-1. Here is the method: as §1, §2
Data set [4] is described as follows: Surface tension at constant surface area (Wilhemy blade tensometer). The class given is physicochemical. As to conditions: aqueous solution with 10% ethanol. How it is done: The surface tension of an aqueous SQgem solution was measured at constant surface area at different concentrations using a Wilhemy blade tensometer and compared with that of a solution of gemcitabine (Gem) and 4-(N)-stearoylgemcitabine (C18gem) (Myhren F et al, Gemcitabine derivatives, US patent no. 2002/0042391).
To prepare the various dilutions of SQgem and C18gem, it was necessary to start from an ethanolic solution; the percentage of ethanol in the final solution was 10% (the presence of ethanol reduces the surface tension of water from 72 mN/m to about 50 mN/m).

Data set [5] deals with two cell lines. Description: Cytotoxic activity at different times in the presence and absence of inserts (MTT test). The class given is cell-based, human. As to conditions: 100 μM SQgem nanoparticles, inserts 0.02 μm, n=3. Here is the method:
The cytotoxic activity of SQgem at different times was also determined by incubating 100 μM SQgem nanoparticles on two cell lines in the presence and absence of inserts (0.02 μm) (MTT test) (n=3).

[6] abbreviates: concentration in final suspension 1 mg/ml.
Where [7] appears, read: concentration in final suspension 2 mg/ml.
The mark [8] stands for this setting: concentration in final suspension 4 mg/ml.

Like-named read-outs stand apart in the source and are kept apart here.

Consider 4-(N)-squalenoyl acyclovir [SQACV], for which, in data set [1] (setting [6]), the “Mean hydrodynamic diameter (nm)” value worked out at 217.5 ± 37.9 nm and the Polydispersity index is on record as 0.038.
Turning to `CC(C)=CCCC(C)=CCCC(C)=CCCC=C(C)CCC=C(C)CCC(=O)OC[C@@H]1CC[C@H](n2cnc3c(=O)[nH]cnc32)O1` [5′-squalenoyl-didanosine], in data set [1] (concentration not given), the “Mean hydrodynamic diameter / size of the nanoparticles” value worked out at 152 nm and the Polydispersity index worked out at 0.1.
Regarding `CC(C)=CCCC(C)=CCCC(C)=CCCC=C(C)CCC=C(C)CCC(=O)OC[C@H]1O[C@@H](n2cc(C)c(=O)[nH]c2=O)C[C@@H]1N=[N+]=[N-]` [5′-squalenoyl-zidovudine, 3-azido-5-(5-methyl-2,4-dioxo-3,4-dihydro-2H-pyrimidin-1-yl)-tetrahydro-furan-2-yl-methyl (2S,3S,5R)-4,8,13,17,21-pentamethyl-docosa-4,8,12,16,20-pentaenoate], the “Mean hydrodynamic diameter / size of the nanoparticles” value in data set [1] (concentration not given) is 150-170 nm.
Turning to `Nc1ccn([C@@H]2O[C@H](CO)[C@@H](O)C2(F)F)c(=O)n1` [Gemcitabine, 2′,2′-difluoro-2′-deoxycytidine], the IC50 came out at 29 ± 13.9 µM in data set [2] (Homo sapiens, MCF7, MCF-7 cells) and 50.8 ± 49.8 µM in data set [3] (Homo sapiens, KB 3-1).
For `CC(C)=CCCC(C)=CCCC(C)=CCCC=C(C)CCC=C(C)CCC(=O)Nc1ccn([C@@H]2O[C@H](CO)[C@@H](O)[C@@H]2O)c(=O)n1` [SQara-C, 4-(N)-squalenoylcytarabine], in data set [1] (setting [6]), the “Mean hydrodynamic diameter (nm)” value was 110.4±34.1 nm and the Polydispersity index is 0.168.
Regarding `CC(C)=CCCC(C)=CCCC(C)=CCCC=C(C)CCC=C(C)CCC(=O)Nc1ccn([C@@H]2O[C@H](CO)[C@@H](O)C2(F)F)c(=O)n1` [SQgem, 4-(N)-squalenoylgemcitabine], the “concentration at which the surface tension is reduced (nanoparticle formation)” value in data set [4] came to 4 µM. Besides, the IC50 in data set [2] (MCF-7 cells) was found to be 4.8 ± 3.9 µM; in data set [3], 8.8 ± 4.1 µM. Further, in data set [3] (from CI50 on KB3-1 and MCF-7, 72 hours), the “times more cytotoxic than the gemcitabine molecule” value is reported as “five to seven times more toxic”. Also, the “Mean hydrodynamic diameter (nm)” value in data set [1] (setting [6]) worked out at 126.2 nm; in data set [1] (setting [7]), 150.4 nm; in data set [1] (setting [8]) it was 171.3 nm. In addition, the Polydispersity index in data set [1] (setting [6]) amounted to 0.26; in data set [1] (setting [7]), 0.09; in data set [1] (setting [8]), 0.08. The “anti-cancer activity with inserts with respect to cytotoxicity tests in the absence of an insert” value in data set [5] is “not reduced”.

For the origin of these results see US8044034B2, “Nanoparticle derivatives of gemcitabine” (Centre National de la Recherche Scientifique (C.N.R.S.), priority 2004, dated 2011).
